Experiments:
[1] = test system: C57BL/6 mice; assay: Mouse Study I: protection from MTX-induced weight loss (LPS/MTX model); format: in vivo; details: 10 or 30 mg/kg ip 3 hr before and after MTX; LPS+MTX treated mice
Description: C57BL/6 mice (10 animals/treatment group) were dosed on Day 1 with LPS (5 μg, i.p.). On Day 2, the animals were treated with 200 mg/kg MTX+10 or 30 mg/kg TK-112690 3 hr before and 3 hr after the MTX treatment. On Day 3, the animals were dosed MTX 100 mg/kg+10 or 30 mg/kg TK±3 hr. On day 8, the Day 8-Day 1 weight was determined and results subject to ANOVA. Group 1=saline alone, Group 2=MTX alone, Group 3=LPS alone, Group 4=MTX+LPS, Group 5=10 mg/kg TK-112690+MTX+LPS or Group 6=30 mg/kg TK-112690+MTX+LPS.
This mouse model is modified from a published procedure (de Koning et al., Int Immunol 18: 941 (2006)). Mice are treated on day one with a single intraperitoneal (ip) dose of lipopolysaccharide (LPS), followed by two consecutive days with 200 and 100 mg/kg ip methotrexate, respectively. Controls include saline alone for days 1, 2, and 3, saline on day 1 plus MTX on days 2 and 3 and LPS on day one with saline injection on days 2 and 3. Experimental groups are given LPS on day one and 10 or 30 mg/kg, TK-112690, a representative 2,2′-anhydropyrimidine test article, ip 3 hours before, and 3 hours after, methotrexate injection on days 2 and 3. Animal weights are measured every day after the first injection with experiment termination five days after the second methotrexate injection (day 8). Weight loss is representative of MTX-induced toxicity, and one aspect of MTX-induced mucositis. […]

[2] = Mouse Study VI: plasma uridine and TK-112690 after TK-112690 treatment; format: in vivo, CD-1 mouse; details: 0, 15, 30, 60 and 120 mg/kg ip
Description: In this study, CD-1 female mice were injected ip with 120 mg/kg TK-112690 and plasma from the animals analyzed by HPLC using UV detection for TK-112690 and uridine. Concentrations of uridine and TK-112690 in plasma samples collected 0.08, 0.50, 1, 2, 4 or 12 hours post TK-112690 injection were determined by HPLC using UV detection. […] An increase in plasma uridine was noted almost immediately following administration of TK-112690. At 0.5 hour post TK-112690 dose, a 100 μg/mL plasma concentration TK-112690 is associated with a plasma uridine concentration of approximately 2 μg/mL of uridine (baseline uridine concentration approximately 0.5 μg/mL). […]
Plasma uridine concentration was determined by HPLC using UV detectionafter animals were treated with TK-112690 as follows. […] CD-1 female mice were injected ip with a range of TK-112690 doses (0, 15, 30, 60 and 120 mg/kg) and plasma from the animals analyzed for TK-112690 uridine concentrations expected to be elevated through UPase inhibition by TK-112690. Plasma uridine concentrations were determined from plasma samples collected 0.08, 0.50, 1, 2, 4 or 12 hours post TK-112690 injection. […]
The micromolar concentration of plasma uridine was determined by linear equation (y=mx+b) generated from uridine and 5-FU calibration curve. The y value is calculated by taking ratio of peak heights (mm) of uridine and 5-FU. […]

With `Cc1cn2c(nc1=O)O[C@H]1[C@H](O)[C@@H](CO)O[C@H]12` [TK-112690, 2,2′-anhydro-5-methyluridine] the “protection from MTX-induced weight loss (Day 8-Day 1 weight)” value [1] was “highly significant” and the “plasma concentrations of TK-112690 vs dose” value [2] was “increased with increasing doses”.

Source: patent USRE48253E1, “Methotrexate adjuvants to reduce toxicity and methods for using the same” (Tosk, Inc., priority 2008, dated 2020)
